# Measured values: ChEMBL document CHEMBL1201862, “PubChem BioAssay data set” (2004)
#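 Test compounds were applied to cells in 96-well plates for 48 hours at 5 doses. GI50 is the concentration that inhibits growth by half.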 The source made the active and inactive calls. Rule as the data show it: active = GI50 up to about 1.1 µM and inactive = higher.
# Legend:
# Assay in all cases: NCI-60 cell line screen, 48 h
# KM-20L2 = tested on: KM-20L2
# 786-0 = tested on: 786-0
# HCT-116 = tested on: HCT-116
# HCT-15 = tested on: HCT-15
# HL-60 = tested on: HL-60
# SF-268 = tested on: SF-268
# RXF 393 = tested on: RXF 393
# U-251 = tested on: U-251
# SW-620 = tested on: SW-620
# ACHN = tested on: ACHN
# SF-295 = tested on: SF-295
# IGROV-1 = tested on: IGROV-1
# HOP-92 = tested on: HOP-92
# NCI-H460 = tested on: NCI-H460
# OVCAR-8 = tested on: OVCAR-8
# TK-10 = tested on: TK-10
# SN12C = tested on: SN12C
# LXFL 529 = tested on: LXFL 529
SMILES,GI50 (KM-20L2),GI50 (786-0),GI50 (HCT-116),GI50 (HCT-15),GI50 (HL-60),GI50 (SF-268),GI50 (RXF 393),GI50 (U-251),GI50 (SW-620),GI50 (ACHN),GI50 (SF-295),GI50 (IGROV-1),GI50 (HOP-92),GI50 (NCI-H460),GI50 (OVCAR-8),GI50 (TK-10),GI50 (SN12C),GI50 (LXFL 529)
CCCCCCCCCCCC(=O)c1c(O)cccc1O,21.7 µM (inactive),18.1 µM (inactive),18 µM (inactive),18.6 µM,19.9 µM (inactive),16.3 µM (inactive),24.4 µM (inactive),19.3 µM (inactive),19.1 µM (inactive),19.5 µM (inactive),17.2 µM (inactive),18.1 µM (inactive),18.1 µM (inactive),21.7 µM (inactive),17.9 µM (inactive),33 µM (inactive),19 µM (inactive),18.5 µM (inactive)
CCC1c2cc3n(c(=O)c2COC1O)Cc1c-3nc2ccccc2c1Cl (stereo unspecified),> 69.7 µM (inactive),25.7 µM (inactive),20.1 µM (inactive),> 94.2 µM,26.9 µM (inactive),14.4 µM (inactive),73.8 µM (inactive),9.86 µM (inactive),> 100 µM (inactive),19.3 µM (inactive),20.9 µM (inactive),> 75.3 µM (inactive),> 100 µM (inactive),3.89 µM (inactive),55.3 µM (inactive),> 100 µM (inactive),10.1 µM (inactive),> 80.7 µM (inactive)
COc1cc(NS(=O)(=O)c2ccc(C)cc2)c2nccnc2c1,32.1 µM (inactive),36.1 µM (inactive),,17.7 µM,13 µM (inactive),24.7 µM (inactive),14.3 µM (inactive),22.1 µM (inactive),37.8 µM (inactive),23.1 µM (inactive),26.7 µM (inactive),36.9 µM (inactive),35.2 µM (inactive),13 µM (inactive),26.7 µM (inactive),47 µM (inactive),39.3 µM (inactive),20.8 µM (inactive)
O=c1c2cc(Br)ccc2n(C2OC(CO)C(O)C(O)C2O)c(=S)n1-c1ccccc1 (stereo unspecified),> 100 µM (inactive),82.4 µM (inactive),> 100 µM (inactive),> 100 µM,> 100 µM (inactive),> 100 µM (inactive),> 100 µM (inactive),> 100 µM (inactive),> 100 µM (inactive),> 100 µM (inactive),> 100 µM (inactive),> 100 µM (inactive),98.2 µM (inactive),> 100 µM (inactive),> 100 µM (inactive),> 100 µM (inactive),> 100 µM (inactive),74.3 µM (inactive)
CCC12C=CCN3CC[C@]4(C(=C(C(=O)OC)[C@@H]1Nc1ccn(C5OC(COC(C)=O)C(OC(C)=O)C5OC(C)=O)c(=O)n1)Nc1ccccc14)C32 (stereo partly specified),4.66 µM (inactive),4.54 µM (inactive),4 µM (inactive),3.54 µM,4.51 µM (inactive),5.55 µM (inactive),3.12 µM (inactive),4.27 µM (inactive),4.66 µM (inactive),4.43 µM (inactive),4.72 µM (inactive),5.25 µM (inactive),4.31 µM (inactive),4.45 µM (inactive),5.16 µM (inactive),4.93 µM (inactive),4.39 µM (inactive),4.42 µM (inactive)
O=C(/C=C/c1ccc[nH]1)c1ccccc1,> 100 µM (inactive),> 100 µM (inactive),> 100 µM (inactive),> 100 µM,41.2 µM (inactive),> 100 µM (inactive),> 100 µM (inactive),> 100 µM (inactive),> 100 µM (inactive),> 100 µM (inactive),> 100 µM (inactive),,56.2 µM (inactive),> 100 µM (inactive),> 100 µM (inactive),> 100 µM (inactive),> 100 µM (inactive),> 100 µM (inactive)
